Like-named read-outs stand apart in the source and are kept apart here. Blank lines part the entries; values can stand above or below the compound they belong to.
Tests used:
Assay type in all cases: cell-based
[1] = biological target: T1, human TLR8 (Homo sapiens, UniProt Q9NR97); experiment: TLR8 inhibition reporter assay (HEK-Blue cells, secreted embryonic alkaline phosphatase reporter); conditions: HEK-Blue cells overexpressing human TLR8, stimulated with R848 15.9 μM; read-out: TLR 8 IC50
T1 construct: host or cells: HEK-Blue cells (HEK293-derived reporter line)
T1 sequence (Q9NR97 27-1041): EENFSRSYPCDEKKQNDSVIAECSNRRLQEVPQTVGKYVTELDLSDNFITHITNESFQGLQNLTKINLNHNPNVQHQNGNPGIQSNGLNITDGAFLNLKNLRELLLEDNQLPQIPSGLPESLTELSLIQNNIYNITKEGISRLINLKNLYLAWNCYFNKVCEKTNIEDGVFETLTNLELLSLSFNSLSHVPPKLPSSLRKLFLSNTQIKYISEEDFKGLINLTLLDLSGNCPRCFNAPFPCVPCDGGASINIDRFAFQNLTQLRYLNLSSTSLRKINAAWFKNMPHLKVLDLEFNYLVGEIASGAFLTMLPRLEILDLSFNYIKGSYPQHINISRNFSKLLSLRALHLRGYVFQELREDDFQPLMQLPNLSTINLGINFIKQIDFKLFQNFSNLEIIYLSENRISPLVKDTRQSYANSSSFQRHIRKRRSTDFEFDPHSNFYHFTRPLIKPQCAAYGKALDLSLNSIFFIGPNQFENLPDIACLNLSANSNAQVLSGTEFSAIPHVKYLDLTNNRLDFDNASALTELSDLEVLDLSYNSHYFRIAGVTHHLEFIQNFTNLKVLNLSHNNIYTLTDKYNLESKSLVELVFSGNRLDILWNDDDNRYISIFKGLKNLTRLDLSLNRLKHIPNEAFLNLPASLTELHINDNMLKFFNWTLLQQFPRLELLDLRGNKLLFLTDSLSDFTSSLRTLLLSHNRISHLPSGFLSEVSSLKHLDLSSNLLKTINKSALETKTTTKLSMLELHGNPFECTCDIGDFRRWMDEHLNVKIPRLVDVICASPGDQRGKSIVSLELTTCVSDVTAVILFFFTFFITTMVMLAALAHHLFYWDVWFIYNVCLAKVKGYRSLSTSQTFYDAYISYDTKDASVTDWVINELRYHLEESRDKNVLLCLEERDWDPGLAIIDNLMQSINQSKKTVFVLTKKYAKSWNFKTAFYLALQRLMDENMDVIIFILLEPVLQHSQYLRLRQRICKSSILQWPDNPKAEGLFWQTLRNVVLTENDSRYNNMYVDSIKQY
In short: (§1)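 Steps: seed receptor-specific HEK-Blue cells; add compound, 0.05 nM–50 μM; wait 30 min at room temperature; add final gardiquimod 7.5 μM, R848 15.9 μM or ODN2006 5 nM for TLR7, TLR8 or TLR9; incubate 22 h at 37 °C; detect NF-κB/AP-1-driven SEAP.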

[2] = biological target: T2, human TLR9 (Homo sapiens, UniProt Q9NR96); experiment: TLR9 inhibition reporter assay (HEK-Blue cells, secreted embryonic alkaline phosphatase reporter)
T2 construct: host or cells: HEK-Blue cells (HEK293-derived reporter line)
T2 sequence (Q9NR96 26-1032): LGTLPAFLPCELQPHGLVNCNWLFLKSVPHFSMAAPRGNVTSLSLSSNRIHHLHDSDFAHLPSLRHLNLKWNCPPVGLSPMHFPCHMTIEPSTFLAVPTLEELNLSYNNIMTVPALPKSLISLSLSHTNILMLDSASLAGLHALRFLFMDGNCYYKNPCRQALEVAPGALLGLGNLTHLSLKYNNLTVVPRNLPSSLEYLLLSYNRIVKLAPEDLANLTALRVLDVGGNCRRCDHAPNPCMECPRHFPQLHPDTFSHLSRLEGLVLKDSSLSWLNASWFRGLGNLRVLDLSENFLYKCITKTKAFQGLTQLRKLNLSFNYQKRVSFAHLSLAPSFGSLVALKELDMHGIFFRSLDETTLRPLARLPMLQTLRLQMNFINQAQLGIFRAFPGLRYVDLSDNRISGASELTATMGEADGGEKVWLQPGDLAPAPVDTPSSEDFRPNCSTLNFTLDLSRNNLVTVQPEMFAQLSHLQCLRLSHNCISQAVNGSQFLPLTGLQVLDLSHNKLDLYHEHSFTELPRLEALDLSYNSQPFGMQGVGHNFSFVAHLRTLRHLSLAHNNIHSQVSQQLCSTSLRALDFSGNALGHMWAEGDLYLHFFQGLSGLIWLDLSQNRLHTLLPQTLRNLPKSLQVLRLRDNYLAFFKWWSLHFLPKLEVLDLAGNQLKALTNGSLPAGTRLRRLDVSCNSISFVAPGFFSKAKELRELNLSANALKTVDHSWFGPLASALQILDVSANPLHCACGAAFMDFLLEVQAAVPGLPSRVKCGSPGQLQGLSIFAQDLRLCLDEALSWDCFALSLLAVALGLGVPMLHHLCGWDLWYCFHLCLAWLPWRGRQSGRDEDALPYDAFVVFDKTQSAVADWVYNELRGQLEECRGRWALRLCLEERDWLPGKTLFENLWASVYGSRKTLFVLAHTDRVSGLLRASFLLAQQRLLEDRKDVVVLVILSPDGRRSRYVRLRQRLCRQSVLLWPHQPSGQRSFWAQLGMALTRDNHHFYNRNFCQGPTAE
In short: as §1

[3] = biological target: T3, human TLR7 (Homo sapiens, UniProt Q9NYK1); experiment: TLR7 inhibition reporter assay (HEK-Blue cells, secreted embryonic alkaline phosphatase reporter); conditions: HEK-Blue cells overexpressing human TLR7, stimulated with gardiquimod 7.5 μM; read-out: TLR 7 IC50
T3 construct: host or cells: HEK-Blue cells (HEK293-derived reporter line)
T3 sequence (Q9NYK1 27-1049): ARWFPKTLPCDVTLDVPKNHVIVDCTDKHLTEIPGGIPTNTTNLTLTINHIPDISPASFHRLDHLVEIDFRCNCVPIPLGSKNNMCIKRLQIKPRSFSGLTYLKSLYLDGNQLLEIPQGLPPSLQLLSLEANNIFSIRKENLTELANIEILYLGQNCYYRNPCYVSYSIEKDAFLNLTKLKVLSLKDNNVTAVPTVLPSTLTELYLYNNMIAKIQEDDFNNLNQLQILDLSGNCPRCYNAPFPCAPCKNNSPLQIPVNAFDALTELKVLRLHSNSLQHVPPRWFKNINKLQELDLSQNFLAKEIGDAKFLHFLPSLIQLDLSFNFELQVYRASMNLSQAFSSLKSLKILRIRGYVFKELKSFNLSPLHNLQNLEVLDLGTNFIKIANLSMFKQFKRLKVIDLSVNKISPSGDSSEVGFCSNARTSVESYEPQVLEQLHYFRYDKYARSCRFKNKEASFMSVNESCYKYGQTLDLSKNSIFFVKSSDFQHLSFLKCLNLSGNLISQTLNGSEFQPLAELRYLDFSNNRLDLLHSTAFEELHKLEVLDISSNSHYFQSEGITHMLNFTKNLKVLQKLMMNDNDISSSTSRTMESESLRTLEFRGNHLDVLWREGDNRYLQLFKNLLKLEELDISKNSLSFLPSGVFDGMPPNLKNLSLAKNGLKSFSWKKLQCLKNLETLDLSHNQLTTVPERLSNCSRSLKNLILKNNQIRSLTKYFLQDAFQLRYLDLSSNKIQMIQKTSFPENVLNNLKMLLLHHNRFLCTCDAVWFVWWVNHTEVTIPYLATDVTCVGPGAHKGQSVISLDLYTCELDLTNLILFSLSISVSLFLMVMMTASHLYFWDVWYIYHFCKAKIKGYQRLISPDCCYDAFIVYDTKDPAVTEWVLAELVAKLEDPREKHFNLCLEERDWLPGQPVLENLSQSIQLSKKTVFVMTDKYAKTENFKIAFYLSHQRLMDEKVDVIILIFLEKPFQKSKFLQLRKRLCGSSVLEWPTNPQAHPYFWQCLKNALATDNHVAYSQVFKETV
In short: as §1

[4] = HEK-Blue cells overexpressing human TLR9, stimulated with ODN2006 5 nM, read-out: TLR 9 IC50

Structure (SMILES): Cc1cc(C2CCN(C3CC4CCC(C3)N4CC3CC3)CC2)cc2c1nc(-c1ccc(S(C)(=O)=O)cc1)n2C (single isomer, unassigned) [Example 154, 6-(1-(8-(cyclopropylmethyl)-8-azabicyclo[3.2.1]octan-3-yl)piperidin-4-yl)-1,4-dimethyl-2-(4-(methylsulfonyl)phenyl)-1H-benzo[d]imidazole]
- IC50 [1]: > 25000 nM
- IC50 [2]: 30 nM
- IC50 [2, 4]: 30 nM
- IC50 [3]: 9000 nM

Structure (SMILES): Cc1cc(C2CCN(C3CC4CCC(C3)N4CC3CCC3)CC2)cc2c1nc(-c1ccc(S(C)(=O)=O)cc1)n2C (single isomer, unassigned) [Example 156, 6-(1-(8-(cyclobutylmethyl)-8-azabicyclo[3.2.1]octan-3-yl)piperidin-4-yl)-1,4-dimethyl-2-(4-(methylsulfonyl)phenyl)-1H-benzo[d]imidazole]
- IC50 [1]: > 25000 nM
- IC50 [2]: 31 nM
- IC50 [2, 4]: 31 nM
- IC50 [3]: 8900 nM

Structure (SMILES): Cc1cc(C2CCN(C3CC4CCC(C3)N4C3COC3)CC2)cc2c1nc(-c1ccc(S(C)(=O)=O)cc1)n2C (single isomer, unassigned) [Example 158, 1,4-dimethyl-2-(4-(methylsulfonyl)phenyl)-6-(1-(8-(oxetan-3-yl)-8-azabicyclo[3.2.1]octan-3-yl)piperidin-4-yl)-1H-benzo[d]imidazole]
- IC50 [1]: > 25000 nM
- IC50 [2]: 160 nM
- IC50 [2, 4]: 1610 nM
- IC50 [3]: > 25000 nM

Structure (SMILES): COCCN1C2CCC1CC(N1CCC(c3cc(C)c4nc(-c5ccc(S(C)(=O)=O)cc5)n(C)c4c3)CC1)C2 (single isomer, unassigned) [Example 162, 6-(1-(8-(2-methoxyethyl)-8-azabicyclo[3.2.1]octan-3-yl)piperidin-4-yl)-1,4-dimethyl-2-(4-(methylsulfonyl)phenyl)-1H-benzo[d]imidazole]
- IC50 [1]: > 25000 nM
- IC50 [2]: 61 nM
- IC50 [2, 4]: 61 nM
- IC50 [3]: 19900 nM

Structure (SMILES): COCCN1C2CCC1CC(N1CCC(c3cc(C)c4nc(-c5ccc(S(C)(=O)=O)cc5)n(C)c4c3)CC1)C2 (single isomer, unassigned) [Example 163, 6-(1-(8-(2-methoxyethyl)-8-azabicyclo[3.2.1]octan-3-yl)piperidin-4-yl)-1,4-dimethyl-2-(4-(methylsulfonyl)phenyl)-1H-benzo[d]imidazole]
- IC50 [1]: > 25000 nM
- IC50 [2]: 600 nM
- IC50 [2, 4]: 599 nM
- IC50 [3]: 6200 nM

Structure (SMILES): COc1ccc(-c2nc3c(C)cc(C4CCN(C5CC6CCC(C5)N6C5COC5)CC4)cc3n2C)cc1OC (single isomer, unassigned) [Example 164, 2-(3,4-dimethoxyphenyl)-1,4-dimethyl-6-(1-(8-(oxetan-3-yl)-8-azabicyclo[3.2.1]octan-3-yl)piperidin-4-yl)-1H-benzo[d]imidazole]
- IC50 [1]: > 25000 nM
- IC50 [2]: 110 nM
- IC50 [2, 4]: 109 nM
- IC50 [3]: > 25000 nM

The remaining lines, values ahead:

- IC50 [1]: > 25000 nM
- IC50 [2]: 120 nM
- IC50 [2, 4]: 12.3 nM
- IC50 [3]: 14300 nM
Structure (SMILES): Cc1cc(C2CCN(C3CC4CCC(C3)N4C3CCC3)CC2)cc2c1nc(-c1ccc(S(C)(=O)=O)cc1)n2C (single isomer, unassigned) [Example 153, 6-(1-(8-cyclobutyl-8-azabicyclo[3.2.1]octan-3-yl)piperidin-4-yl)-1,4-dimethyl-2-(4-(methylsulfonyl)phenyl)-1H-benzo[d]imidazole]

- IC50 [1]: > 25000 nM
- IC50 [2]: 930 nM
- IC50 [2, 4]: 934 nM
- IC50 [3]: > 25000 nM
Structure (SMILES): Cc1cc(C2CCN(C3CC4CCC(C3)N4C3COC3)CC2)cc2c1nc(-c1ccc(S(C)(=O)=O)cc1)n2C (single isomer, unassigned) [Example 159, 1,4-dimethyl-2-(4-(methylsulfonyl)phenyl)-6-(1-(8-(oxetan-3-yl)-8-azabicyclo[3.2.1]octan-3-yl)piperidin-4-yl)-1H-benzo[d]imidazole]

- IC50 [1]: > 25000 nM
- IC50 [2]: 52 nM
- IC50 [2, 4]: 52 nM
- IC50 [3]: 23500 nM
Structure (SMILES): Cc1cc(C2CCN(C3CC4CCC(C3)N4C3CCOCC3)CC2)cc2c1nc(-c1ccc(S(C)(=O)=O)cc1)n2C (single isomer, unassigned) [Example 160, 1,4-dimethyl-2-(4-(methylsulfonyl)phenyl)-6-(1-(8-(tetrahydro-2H-pyran-4-yl)-8-azabicyclo[3.2.1]octan-3-yl)piperidin-4-yl)-1H-benzo[d]imidazole]

- IC50 [1]: > 25000 nM
- IC50 [2]: 210 nM
- IC50 [2, 4]: 211 nM
- IC50 [3]: > 25000 nM
Structure (SMILES): Cc1cc(C2CCN(C3CC4CCC(C3)N4C3CCOCC3)CC2)cc2c1nc(-c1ccc(S(C)(=O)=O)cc1)n2C (single isomer, unassigned) [Example 161, 1,4-dimethyl-2-(4-(methylsulfonyl)phenyl)-6-(1-(8-(tetrahydro-2H-pyran-4-yl)-8-azabicyclo[3.2.1]octan-3-yl)piperidin-4-yl)-1H-benzo[d]imidazole]

— patent US12492188B2, “1H-benzo[D]imidazole derivatives as TLR9 inhibitors for the treatment of fibrosis” (BRISTOL-MYERS SQUIBB COMPANY, priority 2020, dated 2025)
